From patent US20250136606A1, “MODULATORS OF TRPML, THEIR COMPOSITIONS AND METHODS OF USE” (Caraway Therapeutics, Inc., priority 2021, published 2025)

Key:
Type in all cases: cell-based
Details in all cases: fluorescent calcium assay
TRPML3 = molecular target: T1, TRPML3 (Homo sapiens, UniProt Q8TDD5); assay: Fluorescent TRPML3 assay (performed as for TRPML1, substituting the TRPML3 subtype)
T1 construct: expressed in transfected cells
T1 sequence (Q8TDD5 1-553): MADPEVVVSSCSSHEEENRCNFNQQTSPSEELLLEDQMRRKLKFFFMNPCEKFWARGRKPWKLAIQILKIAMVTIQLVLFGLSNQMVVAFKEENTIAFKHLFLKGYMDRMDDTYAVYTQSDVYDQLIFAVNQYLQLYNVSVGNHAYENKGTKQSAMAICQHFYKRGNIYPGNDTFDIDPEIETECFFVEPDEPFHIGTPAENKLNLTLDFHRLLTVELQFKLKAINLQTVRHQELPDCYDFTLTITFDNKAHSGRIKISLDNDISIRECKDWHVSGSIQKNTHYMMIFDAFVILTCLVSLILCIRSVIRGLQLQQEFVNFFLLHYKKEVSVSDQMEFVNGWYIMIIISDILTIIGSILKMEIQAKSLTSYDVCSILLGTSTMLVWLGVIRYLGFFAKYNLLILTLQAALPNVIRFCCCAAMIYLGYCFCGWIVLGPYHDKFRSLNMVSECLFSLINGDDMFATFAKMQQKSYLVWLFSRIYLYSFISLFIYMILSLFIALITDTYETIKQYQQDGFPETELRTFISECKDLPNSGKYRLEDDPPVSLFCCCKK
Outline: (§1)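 HEK-293 Trex cells with doxycycline-induced (0.5 ug/mL) surface-directed human TRPML subtype, loaded with 1 μM Fluo4-AM, resuspended in Ringer's with 10 mM calcium. Compounds at 20 μM to 6 nM final in half-log steps, triplicate; fluorescence ex 480/em 540; EC50 by non-linear regression versus plate controls.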

TRPML1 = TRPML1 (Homo sapiens, UniProt Q9GZU1); assay: Fluorescent TRPML1 assay (Fluo4-AM calcium fluorescence in doxycycline-induced HEK-293 Trex cells)
Outline: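 First, expression of surface-targeted mutant human TRPML1 is induced in HEK-293 Trex cells with 0.5 ug/mL doxycycline the day before. Next, cells take up 1 micromolar Fluo4-AM in Ringer's with 0.1% Pluronic. Finally, they are added to compounds (6 nanomolar–20 micromolar final) in 10 mM calcium Ringer's and fluorescence is read.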

TRPML2 = molecular target: T2, TRPML2 (Homo sapiens, UniProt Q8IZK6); assay: Fluorescent TRPML2 assay (performed as for TRPML1, substituting the TRPML2 subtype)
T2 construct: expressed in transfected cells
T2 sequence (Q8IZK6 1-566): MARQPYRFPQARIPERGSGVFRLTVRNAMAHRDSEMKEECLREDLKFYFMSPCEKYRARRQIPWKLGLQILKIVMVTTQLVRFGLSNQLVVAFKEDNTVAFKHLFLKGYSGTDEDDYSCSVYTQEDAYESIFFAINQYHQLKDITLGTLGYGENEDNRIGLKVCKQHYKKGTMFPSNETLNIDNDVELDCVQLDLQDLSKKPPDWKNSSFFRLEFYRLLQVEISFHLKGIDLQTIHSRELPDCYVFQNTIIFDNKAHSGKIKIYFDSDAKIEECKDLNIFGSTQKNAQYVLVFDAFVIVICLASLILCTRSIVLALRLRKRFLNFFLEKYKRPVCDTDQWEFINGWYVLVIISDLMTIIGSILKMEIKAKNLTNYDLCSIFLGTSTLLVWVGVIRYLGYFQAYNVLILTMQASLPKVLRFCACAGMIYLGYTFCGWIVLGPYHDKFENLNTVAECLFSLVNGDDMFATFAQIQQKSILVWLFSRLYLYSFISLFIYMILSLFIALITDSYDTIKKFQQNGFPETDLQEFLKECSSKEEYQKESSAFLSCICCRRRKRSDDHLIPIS
Outline: as §1

TRPML1, sequence (Q9GZU1 whole entry L15A/L16A/L577A/L578A, form open): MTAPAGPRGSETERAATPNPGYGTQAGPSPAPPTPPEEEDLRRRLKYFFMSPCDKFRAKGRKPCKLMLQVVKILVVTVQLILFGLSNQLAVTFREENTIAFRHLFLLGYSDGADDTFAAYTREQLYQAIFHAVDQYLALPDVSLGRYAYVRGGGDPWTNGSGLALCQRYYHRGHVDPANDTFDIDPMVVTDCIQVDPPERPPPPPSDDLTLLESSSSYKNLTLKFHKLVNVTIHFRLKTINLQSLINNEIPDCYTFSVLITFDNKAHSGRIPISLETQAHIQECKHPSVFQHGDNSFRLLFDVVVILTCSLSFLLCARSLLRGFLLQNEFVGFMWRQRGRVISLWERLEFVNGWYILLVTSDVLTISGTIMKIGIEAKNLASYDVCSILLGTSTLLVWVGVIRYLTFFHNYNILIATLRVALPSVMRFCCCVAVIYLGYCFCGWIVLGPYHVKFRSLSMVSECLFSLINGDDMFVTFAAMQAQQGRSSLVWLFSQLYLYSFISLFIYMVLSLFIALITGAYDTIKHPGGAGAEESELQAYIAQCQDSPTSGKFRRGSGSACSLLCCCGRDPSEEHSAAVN

SMILES	EC50 (TRPML3) [nM]	EC50 (TRPML1) [nM]	EC50 (TRPML2) [nM]
CC(C)(CF)OC(=O)N1CCN(c2ncnc3c2c(-c2ccccc2F)cn3-c2cccnc2)CC1 [Compound 172, 1-fluoro-2-methylpropan-2-yl 4-(5-(2-fluorophenyl)-7-(pyridin-3-yl)-7H-pyrrolo[2,3-d]pyrimidin-4-yl)piperazine-1-carboxylate]	500 to 2000	500 to 2000	> 2000
CC(C)(CF)OC(=O)N1CCN(c2ncnc3c2c(-c2ccccc2F)cn3-c2cncnc2)CC1 [Compound 173, 1-fluoro-2-methylpropan-2-yl 4-(5-(2-fluorophenyl)-7-(pyrimidin-5-yl)-7H-pyrrolo[2,3-d]pyrimidin-4-yl)piperazine-1-carboxylate]	500 to 2000	500 to 2000	> 2000
C[C@@H]1CN(c2ncnc3c2c(-c2ccccc2F)cn3-c2cnn(C)c2)[C@@H](C)CN1C(=O)OC(C)(C)C [Compound 176, tert-butyl (2R,5S)-4-(5-(2-fluorophenyl)-7-(1-methyl-1H-pyrazol-4-yl)-7H-pyrrolo[2,3-d]pyrimidin-4-yl)-2,5-dimethylpiperazine-1-carboxylate]	100 to 500	100 to 500	500 to 2000
Cc1cncc(-n2cc(-c3cccnc3)c3c(N4CCN(C(=O)OC(C)(C)C)C[C@@H]4C)ncnc32)c1 [Compound 177, tert-butyl (S)-3-methyl-4-(7-(5-methylpyridin-3-yl)-5-(pyridin-3-yl)-7H-pyrrolo[2,3-d]pyrimidin-4-yl)piperazine-1-carboxylate]	500 to 2000	500 to 2000	> 2000
Cc1cncc(-n2cc(-c3cccnc3)c3c(N4C[C@@H](C)N(C(=O)OC(C)(C)C)C[C@@H]4C)ncnc32)c1 [Compound 178, tert-butyl (2R,5S)-2,5-dimethyl-4-(7-(5-methylpyridin-3-yl)-5-(pyridin-3-yl)-7H-pyrrolo[2,3-d]pyrimidin-4-yl)piperazine-1-carboxylate]	500 to 2000	100 to 500	> 2000
C[C@@H]1CN(c2ncnc3c2c(-c2cccnc2)cn3-c2cncc(C(F)(F)F)c2)[C@@H](C)CN1C(=O)OC(C)(C)C [Compound 179, tert-butyl (2R,5S)-2,5-dimethyl-4-(5-(pyridin-3-yl)-7-(5-(trifluoromethyl)pyridin-3-yl)-7H-pyrrolo[2,3-d]pyrimidin-4-yl)piperazine-1-carboxylate]	100 to 500	500 to 2000	> 2000
Cc1nccnc1-c1cn(-c2ccc(F)c(F)c2)c2ncnc(N3C[C@@H](C)N(C(=O)OC(C)(C)C)C[C@@H]3C)c12 [Compound 180, tert-butyl (2R,5S)-4-(7-(3,4-difluorophenyl)-5-(3-methylpyrazin-2-yl)-7H-pyrrolo[2,3-d]pyrimidin-4-yl)-2,5-dimethylpiperazine-1-carboxylate]	< 100	100 to 500	500 to 2000
Cc1nccnc1-c1cn(-c2ccc(F)cc2)c2ncnc(N3C[C@@H](C)N(C(=O)OC(C)(C)C)C[C@@H]3C)c12 [Compound 181, tert-butyl (2R,5S)-4-(7-(4-fluorophenyl)-5-(3-methylpyrazin-2-yl)-7H-pyrrolo[2,3-d]pyrimidin-4-yl)-2,5-dimethylpiperazine-1-carboxylate]	100 to 500	100 to 500	500 to 2000
Cc1nccnc1-c1cn(-c2ccccc2)c2ncnc(N3C[C@@H](C)N(C(=O)OC(C)(C)C)C[C@@H]3C)c12 [Compound 182, tert-butyl (2R,5S)-2,5-dimethyl-4-(5-(3-methylpyrazin-2-yl)-7-phenyl-7H-pyrrolo[2,3-d]pyrimidin-4-yl)piperazine-1-carboxylate]	500 to 2000	500 to 2000	> 2000
C[C@H]1CN(C(=O)OC(C)(C)C(F)(F)F)CCN1c1ncnc2c1c(-c1ccccc1)cn2-c1cnn(C)c1 [Compound 183, 1,1,1-trifluoro-2-methylpropan-2-yl(S)-3-methyl-4-(7-(1-methyl-1H-pyrazol-4-yl)-5-phenyl-7H-pyrrolo[2,3-d]pyrimidin-4-yl)piperazine-1-carboxylate]	100 to 500	100 to 500	500 to 2000
Cc1nccnc1-c1cn(-c2ccc(Cl)cc2)c2ncnc(N3C[C@@H](C)N(C(=O)OC(C)(C)C)C[C@@H]3C)c12 [Compound 184, tert-butyl (2R,5S)-4-(7-(4-chlorophenyl)-5-(3-methylpyrazin-2-yl)-7H-pyrrolo[2,3-d]pyrimidin-4-yl)-2,5-dimethylpiperazine-1-carboxylate]	100 to 500	100 to 500	500 to 2000
C[C@@H]1CN(c2ncnc3c2c(-c2ccccc2F)cn3-c2cnn(C)c2)[C@@H](C)CN1C(=O)OC(C)(C)CF [Compound 185, 1-fluoro-2-methylpropan-2-yl (2R,5S)-4-(5-(2-fluorophenyl)-7-(1-methyl-1H-pyrazol-4-yl)-7H-pyrrolo[2,3-d]pyrimidin-4-yl)-2,5-dimethylpiperazine-1-carboxylate]	< 100	< 100	500 to 2000
C[C@@H]1CN(c2ncnc3c2c(-c2ccccc2F)cn3-c2cnn(C)c2)[C@@H](C)CN1C(=O)OC(C)(C)C(F)(F)F [Compound 186, 1,1,1-trifluoro-2-methylpropan-2-yl (2R,5S)-4-(5-(2-fluorophenyl)-7-(1-methyl-1H-pyrazol-4-yl)-7H-pyrrolo[2,3-d]pyrimidin-4-yl)-2,5-dimethylpiperazine-1-carboxylate]	< 100	< 100	100 to 500
CC1CN(C(=O)OC(C)(C)C)CCN1c1nccc2c1c(-c1ccccn1)cn2-c1cccc(Cl)c1 (stereo not drawn) [Compound 187, tert-butyl 4-(1-(3-chlorophenyl)-3-(pyridin-2-yl)-1H-pyrrolo[3,2-c]pyridin-4-yl)-3-methylpiperazine-1-carboxylate]	100 to 500	100 to 500	100 to 500
C[C@H]1CN(c2ncnc3c2c(C2CC2)cn3-c2cc(F)cc(F)c2)CCN1C(=O)OC(C)(C)C [Compound 188, tert-Butyl (S)-4-(5-cyclopropyl-7-(3,5-difluorophenyl)-7H-pyrrolo[2,3-d]pyrimidin-4-yl)-2-methylpiperazine-1-carboxylate]	100 to 500	100 to 500	500 to 2000
CC1CN(C(=O)OC(C)(C)C)CCN1c1nccc2c1c(-c1cnccn1)cn2-c1cccc(Cl)c1 (stereo not drawn) [Compound 190, tert-Butyl 4-(1-(3-chlorophenyl)-3-(pyrazin-2-yl)-1H-pyrrolo[3,2-c]pyridin-4-yl)-3-methylpiperazine-1-carboxylate]	100 to 500	500 to 2000	500 to 2000
C[C@H]1CN(C(=O)OC(C)(C)CF)CCN1c1ncnc2c1c(-c1ccccc1)cn2-c1cnn(C)c1 [Compound 191, 1-fluoro-2-methylpropan-2-yl (S)-3-methyl-4-(7-(1-methyl-1H-pyrazol-4-yl)-5-phenyl-7H-pyrrolo[2,3-d]pyrimidin-4-yl)piperazine-1-carboxylate]	100 to 500	100 to 500	500 to 2000
C[C@@H]1CN(c2ncnc3c2c(-c2ccccc2F)cn3-c2ccccn2)CCN1C(=O)OC(C)(C)C [Compound 192, tert-butyl (R)-4-(5-(2-fluorophenyl)-7-(pyridin-2-yl)-7H-pyrrolo[2,3-d]pyrimidin-4-yl)-2-methylpiperazine-1-carboxylate]	< 100	< 100	100 to 500
